Assay [1] has as its target T1, recombinant human MER (Homo sapiens, UniProt Q12866).
T1 construct: purchased Invitrogen
T1 sequence (Q12866 21-999): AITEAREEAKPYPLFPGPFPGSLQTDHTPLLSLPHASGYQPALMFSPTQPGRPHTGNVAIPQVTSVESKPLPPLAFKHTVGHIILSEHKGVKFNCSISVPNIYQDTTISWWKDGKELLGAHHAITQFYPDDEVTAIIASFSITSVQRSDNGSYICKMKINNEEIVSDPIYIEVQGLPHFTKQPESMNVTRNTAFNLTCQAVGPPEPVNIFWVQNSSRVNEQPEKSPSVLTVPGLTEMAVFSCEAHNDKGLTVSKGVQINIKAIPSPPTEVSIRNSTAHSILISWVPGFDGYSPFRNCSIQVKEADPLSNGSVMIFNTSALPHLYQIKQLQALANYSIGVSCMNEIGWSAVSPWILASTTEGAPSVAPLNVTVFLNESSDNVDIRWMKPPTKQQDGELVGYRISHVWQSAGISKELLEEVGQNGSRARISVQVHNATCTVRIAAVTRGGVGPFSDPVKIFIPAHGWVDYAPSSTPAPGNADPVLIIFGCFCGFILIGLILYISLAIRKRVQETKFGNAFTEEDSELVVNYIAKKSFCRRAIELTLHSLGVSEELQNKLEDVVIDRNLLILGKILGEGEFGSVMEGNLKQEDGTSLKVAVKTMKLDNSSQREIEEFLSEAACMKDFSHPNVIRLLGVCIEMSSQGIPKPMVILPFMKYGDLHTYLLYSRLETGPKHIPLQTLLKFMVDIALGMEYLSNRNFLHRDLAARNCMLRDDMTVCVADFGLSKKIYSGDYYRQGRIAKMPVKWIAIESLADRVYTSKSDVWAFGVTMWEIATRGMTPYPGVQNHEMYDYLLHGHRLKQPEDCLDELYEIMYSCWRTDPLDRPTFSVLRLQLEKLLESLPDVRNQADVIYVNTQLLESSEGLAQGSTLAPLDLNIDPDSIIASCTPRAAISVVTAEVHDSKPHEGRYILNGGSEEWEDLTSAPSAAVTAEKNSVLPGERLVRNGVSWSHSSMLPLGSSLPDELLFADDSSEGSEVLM
The assay is described as follows: Biochemical potency, HTRF KinEASE-TK kinase assay. The settings on record: 1 nM MER, 700 μM ATP. The method in brief:
(§1)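 Steps: compound plus kinase, 1 h RT; add ATP (700 µM final) and biotin-TK substrate (800 nM final); run 2 h RT; stop into streptavidin-XL665/anti-phospho cryptate detection mix, 1 h; read 665/620. AXL at 5 nM, TYRO3 and MER at 1 nM.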

The target of assay [2] is T2, recombinant human TYRO3 (Homo sapiens, UniProt Q06418).
T2 construct: purchased Invitrogen
T2 sequence (Q06418 41-890): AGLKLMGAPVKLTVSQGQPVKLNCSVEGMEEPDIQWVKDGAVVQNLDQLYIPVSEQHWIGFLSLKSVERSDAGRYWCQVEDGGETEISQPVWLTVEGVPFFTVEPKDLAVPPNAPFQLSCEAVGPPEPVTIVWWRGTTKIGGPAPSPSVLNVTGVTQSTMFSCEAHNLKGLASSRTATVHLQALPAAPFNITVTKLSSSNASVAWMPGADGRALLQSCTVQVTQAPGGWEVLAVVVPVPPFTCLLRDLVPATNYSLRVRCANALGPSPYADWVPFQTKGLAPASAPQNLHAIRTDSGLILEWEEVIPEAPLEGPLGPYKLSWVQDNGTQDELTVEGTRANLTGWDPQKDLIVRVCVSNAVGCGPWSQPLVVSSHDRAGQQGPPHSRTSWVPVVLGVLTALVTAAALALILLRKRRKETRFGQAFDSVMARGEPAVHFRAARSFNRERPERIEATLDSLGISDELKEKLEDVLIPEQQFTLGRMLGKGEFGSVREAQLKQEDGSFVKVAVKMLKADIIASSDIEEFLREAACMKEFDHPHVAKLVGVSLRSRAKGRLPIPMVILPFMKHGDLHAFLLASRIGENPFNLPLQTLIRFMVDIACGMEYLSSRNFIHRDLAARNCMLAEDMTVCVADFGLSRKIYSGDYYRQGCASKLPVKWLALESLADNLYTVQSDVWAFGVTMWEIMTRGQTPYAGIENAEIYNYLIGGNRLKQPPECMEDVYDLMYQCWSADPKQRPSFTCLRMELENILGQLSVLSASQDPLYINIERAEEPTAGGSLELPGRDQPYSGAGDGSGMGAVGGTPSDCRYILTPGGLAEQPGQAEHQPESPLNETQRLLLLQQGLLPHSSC
The assay is described as follows: Biochemical potency, HTRF KinEASE-TK kinase assay. The settings on record: 1 nM TYRO3, 700 μM ATP. The essentials:
as §1

Regarding `Cc1nc(-c2ccc(-c3n[nH]c4ncc(-c5ccc6c(c5)CC[C@@H](N5C7COCC5C7)CC6)cc34)cc2)n(C)n1` [Example 23, 6-[(7S)-2-{3-[4-(1,3-Dimethyl-1H-1,2,4-triazol-5-yl)phenyl]-1H-pyrazolo[3,4-b]pyridin-5-yl}-6,7,8,9-tetrahydro-5H-benzo[7]annulen-7-yl]-3-oxa-6-azabicyclo[3.1.1]heptane], the IC50 is 0.1 to 1 µM in assay [1] and less than 0.1 µM in assay [2].

As for `c1cncc(-c2ccc(-c3c[nH]c4ncc(-c5ccc6c(c5)CC[C@@H](N5C7COCC5C7)CC6)cc34)cc2)c1` [Example 158, 6-[(7S)-2-{3-[4-(Pyridin-3-yl)phenyl]-1H-pyrrolo[2,3-b]pyridin-5-yl}-6,7,8,9-tetrahydro-5H-benzo[7]annulen-7-yl]-3-oxa-6-azabicyclo[3.1.1]heptane], the half-maximal inhibitory concentration (IC50) in assay [1] and in assay [2] was more than 1 µM throughout.

On to `Cc1cccnc1-c1ccc(-c2n[nH]c3ncc(-c4ccc5c(c4)CC[C@@H](N4C[C@@H]6C[C@H]4CO6)CC5)cc23)cc1` [Example 130, (1S,4S)-5-[(7S)-2-{3-[4-(3-Methylpyridin-2-yl)phenyl]-1H-pyrazolo[3,4-b]pyridin-5-yl}-6,7,8,9-tetrahydro-5H-benzo[7]annulen-7-yl]-2-oxa-5-azabicyclo[2.2.1]heptane], for which the IC50 in assay [1] and in assay [2] was less than 0.1 µM in each case.

For `Cn1nccc1-c1ccc(-c2n[nH]c3ncc(-c4ccc5c(c4)CC[C@@H](N4C6COCC4C6)CC5)cc23)cc1` [Example 109, 6-[(7S)-2-{3-[4-(1-Methyl-1H-pyrazol-5-yl)phenyl]-1H-pyrazolo[3,4-b]pyridin-5-yl}-6,7,8,9-tetrahydro-5H-benzo[7]annulen-7-yl]-3-oxa-6-azabicyclo[3.1.1]heptane], the half-maximal inhibitory concentration (IC50) in assay [1] and in assay [2] was 0.1 to 1 µM each time.

On to `C[C@H]1COC(=O)N1c1cccnc1-c1ccc(-c2n[nH]c3ncc(-c4ccc5c(c4)CC[C@@H](N4C6COCC4C6)CC5)cc23)cc1` [Example 125, (4S)-4-Methyl-3-[2-(4-{5-[(7S)-7-{3-oxa-6-azabicyclo[3.1.1]heptan-6-yl}-6,7,8,9-tetrahydro-5H-benzo[7]annulen-2-yl]-1H-pyrazolo[3,4-b]pyridin-3-yl}phenyl)pyridin-3-yl]-1,3-oxazolidin-2-one], for which the IC50 in assay [1] and in assay [2] was less than 0.1 µM in each case.

As to `COc1cccnc1-c1ccc(-c2c[nH]c3ncc(-c4ccc5c(c4)CC[C@@H](N4C6COCC4C6)CC5)cc23)cc1` [Example 164, 6-[(7S)-2-{3-[4-(3-Methoxypyridin-2-yl)phenyl]-1H-pyrrolo[2,3-b]pyridin-5-yl}-6,7,8,9-tetrahydro-5H-benzo[7]annulen-7-yl]-3-oxa-6-azabicyclo[3.1.1]heptane], the IC50 in assay [1] was 0.1 to 1 µM; in assay [2], less than 0.1 µM.

In the case of `Cn1ncnc1-c1ccc(-c2n[nH]c3ncc(-c4ccc5c(c4)CC[C@@H](N4C6COCC4C6)CC5)cc23)cc1` [Example 110, 6-[(7S)-2-{3-[4-(1-Methyl-1H-1,2,4-triazol-5-yl)phenyl]-2H-pyrazolo[3,4-b]pyridin-5-yl}-6,7,8,9-tetrahydro-5H-benzo[7]annulen-7-yl]-3-oxa-6-azabicyclo[3.1.1]heptane], the IC50 in assay [1] was 0.1 to 1 µM; in assay [2], less than 0.1 µM.

Consider `Cc1ccnc(-c2ccc(-c3n[nH]c4ncc(-c5ccc6c(c5)CC[C@@H](N5C7COCC5C7)CC6)cc34)cc2)c1` [Example 117, 6-[(7S)-2-{3-[4-(4-Methylpyridin-2-yl)phenyl]-1H-pyrazolo[3,4-b]pyridin-5-yl}-6,7,8,9-tetrahydro-5H-benzo[7]annulen-7-yl]-3-oxa-6-azabicyclo[3.1.1]heptane], for which the IC50 was more than 1 µM in assay [1] and 0.1 to 1 µM in assay [2].
